pKi: −log10 of the molar value. Structures can show the parent of a compound that is named as a salt.
Target: T1, human cloned 5-HT6 receptors (Homo sapiens, UniProt P50406)
T1 construct: expressed in transfected cells; host or cells: HeLa cells
Assay: 5-HT6 binding affinity, [3H]-LSD displacement from membranes of Hela cells expressing human cloned 5-HT6 receptors
Conditions: 1 μM test compound; [3H]-LSD 3.0 nM
Method: The affinity of test compounds for the serotonin 5-HT6 receptor is evaluated in the following manner. Cultured Hela cells expressing human cloned 5-HT6 receptors are harvested and centrifuged at low speed (1,000×g) for 10.0 min to remove the culture media. The harvested cells are suspended in half volume of fresh physiological phosphate buffered saline solution and recentrifuged at the same speed. This operation is repeated. The collected cells are then homogenized in ten volumes of 50 mM Tris.HCl (pH 7.4) and 0.5 mM EDTA. The homogenate is centrifuged at 40,000×g for 30.0 min and the precipitate is collected. The obtained pellet is resuspended in 10 volumes of Tris.HCl buffer and recentrifuged at the same speed. The final pellet is suspended in a small volume of Tris.HCl buffer and the tissue protein content is determined in aliquots of 10-25 μl volumes. Bovine Serum Albumin is used as the standard in the protein determination according to the method described in Lowry et al., J. Biol. Chem., 193:265 (1951). The volume of the suspended cell membranes is adjusted to give a tissue protein concentration of 1.0 mg/ml of suspension. The prepared membrane suspension (10 times concentrated) is aliquoted in 1.0 ml volumes and stored at −70° C. until used in subsequent binding experiments.
Binding experiments are performed in a 96 well microtiter plate format, in a total volume of 200 μl. […] The test compounds are added in 20.0 μl volume.
The reaction is allowed to proceed in the dark for 120 min at room temperature, at which time, the bound ligand-receptor complex is filtered off on a 96 well unifilter with a Packard Filtermate® 196 Harvester. The bound complex caught on the filter disk is allowed to air dry and the radioactivity is measured in a Packard TopCount® equipped with six photomultiplier detectors, after the addition of 40.0 μl Microscint®-20 scintillant to each shallow well. The unifilter plate is heat-sealed and counted in a PackardTopCount® with a tritium efficiency of 31.0%.
Binding in the presence of varying concentrations of test compound is expressed as a percentage of specific binding in the absence of test compound. The results are plotted as log % bound versus log concentration of test compound. […] A linear regression line of data points is plotted, from which the IC50 value is determined and the Ki value is determined based upon the following equation: Ki=IC50/(1+L/KD) where L is the concentration of the radioactive ligand used and KD is the dissociation constant of the ligand for the receptor, both expressed in nM.

T1 sequence (P50406 whole entry): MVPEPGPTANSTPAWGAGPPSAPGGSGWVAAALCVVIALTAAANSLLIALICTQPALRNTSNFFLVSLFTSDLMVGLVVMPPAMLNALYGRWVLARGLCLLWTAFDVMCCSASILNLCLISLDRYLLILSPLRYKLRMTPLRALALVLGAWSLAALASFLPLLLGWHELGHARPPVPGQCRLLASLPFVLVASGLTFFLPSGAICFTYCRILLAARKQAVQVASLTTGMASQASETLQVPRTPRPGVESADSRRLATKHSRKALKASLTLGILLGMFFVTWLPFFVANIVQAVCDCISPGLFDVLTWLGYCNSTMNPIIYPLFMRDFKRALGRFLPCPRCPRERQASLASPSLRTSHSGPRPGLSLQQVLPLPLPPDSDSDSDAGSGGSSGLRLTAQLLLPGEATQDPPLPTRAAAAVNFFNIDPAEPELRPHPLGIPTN

Compound	% inhibition at 1 μM concentration (5-HT6 binding)
N-(3-methoxybenzyl)-N-(2-{[1-(phenylsulfonyl)-1H-indol-4-yl]oxy}ethylamineH hydrochloride [Example 7b]	95% @ 1 μM*
N,N-Bis(3-methoxybenzyl)-N-(2-{[1-(phenylsulfonyl)-1H-indol-4-yl]oxy}ethylamine [Example 7a]	94% @ 1 μM*

Same assay, conditions: 1 μM test compound; [3H]-LSD 3.0 nM; read-out: % inhibition at 1 μM concentration (5-HT6 binding)

inhibition at 1 µM	Compound
92%	O=S(=O)(c1ccccc1)n1ccc2c(OCCN3CCOCC3)cccc21 [Example 9, 4-(2-Morpholin-4-ylethoxy)-1-(phenylsulfonyl)-1H-indole Hydrochloride]
76%	O=[N+]([O-])c1ccc(S(=O)(=O)n2ncc3c(OCCN4CCCCC4)cccc32)cc1 [Example 15, 1-[(4-nitrophenyl)sulfonyl]-4-[2-(1-piperidinyl)ethoxy]-1H-indazole]

Same assay, conditions: [3H]-LSD 3.0 nM, Hela cell membranes, 120 min at room temperature

pKi	Compound
7.96	O=S(=O)(c1ccccc1)n1ncc2c(OCCNC3CCSCC3)cccc21 [Example 18, N-(2-{[1-Phenylsulfonyl)-1H-indazol-4-yl]oxy}ethyl)tetrahydro-2H-thiopyran-4-amine Hydrochloride]
8.22	O=S(=O)(c1ccccc1)n1ncc2c(OCCNC3CCOCC3)cccc21 [Example 17]
7.72	O=S(=O)(c1ccc(F)cc1)n1ncc2c(OCCN3CCCCC3)cccc21 [Example 16, 1-[(4-fluorophenyl)sulfonyl]-4-[2-(1-piperidinyl)ethoxy]-1H-indazole]
9.00	Nc1ccc(S(=O)(=O)n2ncc3c(OCCN4CCCCC4)cccc32)cc1 [Example 19, 4-({4-[2-(1-Piperidinyl)ethoxy]-1H-indazol-1-yl}sulfonyl)aniline]

Continued, compound first:

Compound	pKi
CN(C)CCOc1cccc2c1ccn2S(=O)(=O)c1ccccc1 [Example 8, N,N-Dimethyl-N-(2-{[1-phenylsulfonyl)-1H-indol-4-yl]oxy}ethylamine Hydrochloride]	8.40
NCCOc1cccc2c1cnn2S(=O)(=O)c1ccccc1 [Example 14, 2-{[1-Phenylsulfonyl)-1H-indazol-4-yl]oxy}ethylamine Hydrochloride]	9.00
O=S(=O)(c1ccccc1)n1ccc2c(OCCN3CCCCC3)cccc21 [Example 10, 1-(Phenylsulfonyl)-4-(2-piperidin-1-ylethoxy)-1H-indole Hydrochloride]	8.15
O=S(=O)(c1ccccc1)n1ccc2c(OCCNC3CCOCC3)cccc21 [Example 6, N-(2-{[1-(Phenylsulfonyl)-1H-indol-4-yl]oxy}ethyl)tetrahydro-2H-pyran-4-amine Hydrochloride]	8.22
O=S(=O)(c1ccccc1)n1ncc2c(OCCN3CCCCC3)cccc21 [Example 13, 1-Phenylsulfonyl)-4-[1-piperidinyl)ethoxy]-1H-indazole Hydrochloride]	8.70
NCCOc1cccc2c1ccn2S(=O)(=O)c1ccccc1 [Example 5, 2-{[1-(Phenylsulfonyl)-1H-indole-4-yl]oxy}ethylamine Hydrochloride]	8.70

System: not given
Assay: not given
Conditions: not given

melting point	Compound
122 °C (dec.)	O=S(=O)(c1ccc(F)cc1)n1ncc2c(OCCN3CCCCC3)cccc21 (as salt: hydrochloride) [Example 16, 1-[(4-fluorophenyl)sulfonyl]-4-[2-(1-piperidinyl)ethoxy]-1H-indazole]
117 to 119 °C	O=[N+]([O-])c1ccc(S(=O)(=O)n2ncc3c(OCCN4CCCCC4)cccc32)cc1 (as salt: hydrochloride) [Example 15, 1-[(4-nitrophenyl)sulfonyl]-4-[2-(1-piperidinyl)ethoxy]-1H-indazole]

Reference: patent US6919354B2, “1-aryl-or 1-alkylsulfonylbenzazole derivatives as 5-hydroxytryptamine-6 ligands” (Wyeth, priority 2001, dated 2005)
